Laboratory results from US7605154B2, “Substituted Thiazolo [4,5-d]pyrimidines as protein kinase inhibitors” (Janssen Pharmaceutica N.V., priority 2005, dated 2009).
pIC50: −log10 of the molar value. “And” between values parts separate entries of the source, which are not always exact repeats. Equal values may be shown once.

Experiments:
EGFR = molecular target: T1, EGFR (Homo sapiens, UniProt P00533); assay: EGFR Kinase Assay; type: biochemical; conditions: GST-EGFR, 5 μM ATP
T1 construct: started at nucleotide 2189 (corresponding to amino acid 667) and ended at the termination codon; made in house; host or cells: Sf9 insect cells (baculovirus)
T1 sequence (P00533 667-1210 limits assumed): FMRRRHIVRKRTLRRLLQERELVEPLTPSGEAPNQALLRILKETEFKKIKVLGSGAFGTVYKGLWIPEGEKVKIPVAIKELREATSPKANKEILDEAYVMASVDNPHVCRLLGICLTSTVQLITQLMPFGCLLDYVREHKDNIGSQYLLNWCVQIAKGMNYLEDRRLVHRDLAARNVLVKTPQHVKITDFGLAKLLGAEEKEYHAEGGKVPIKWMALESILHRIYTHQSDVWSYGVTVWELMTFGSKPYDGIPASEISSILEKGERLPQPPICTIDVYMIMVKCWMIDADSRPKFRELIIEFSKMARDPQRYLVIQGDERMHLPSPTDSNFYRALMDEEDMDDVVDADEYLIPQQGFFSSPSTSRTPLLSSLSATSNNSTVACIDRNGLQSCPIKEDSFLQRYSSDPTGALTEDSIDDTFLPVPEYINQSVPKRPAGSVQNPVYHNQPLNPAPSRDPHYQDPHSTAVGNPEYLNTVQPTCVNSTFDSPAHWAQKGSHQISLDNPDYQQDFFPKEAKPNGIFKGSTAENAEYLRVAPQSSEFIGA
Procedure, shortened: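 Baculovirus/Sf9-expressed GST-EGFR with biotinylated polyGluTyr substrate, 5 μM ATP plus γ-33P-ATP, in 50 mM Tris pH 8.0, 10 mM MgCl2, 0.1 mM vanadate, 1 mM DTT; 1 h at 30 °C.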

HeLa = assay: Cell Proliferation Inhibition Assay (14C-thymidine incorporation), HeLa; type: cell-based; conditions: Homo sapiens
Excerpt: (§1) The ability of a test compound to inhibit unregulated cell proliferation may be determined by measuring incorporation of ^14C-labelled thymidine into newly synthesized DNA within cell lines derived from carcinomas originating from several tissues. Accordingly, the anti-proliferative effect of a compound on cells with a variety of phenotypes may be determined.
(§2) Carcinoma cell lines include those such as HeLa cervical adenocarcinoma (American Type Culture Collection (ATCC), Virginia, Cat. #CCL-2), A375 malignant melanoma (ATCC CRL-1619), SK-OV-3 ovarian adenocarcinoma (ATCC HTB-77), HCT-116 colon carcinoma (CCL-247), PC-3 prostate adenocarcinoma (ATCC CRL-1435), and MDA-MB-231 (Xenogen Corp.)
(§3) The carcinoma cells are trypsinized and counted. […]
(§4) An aliquot of a solution of Methyl ^14C-thymidine (56 mC/mmol) (NEN #NEC568 or Amersham #CFA532) and complete medium (20 uL to provide 0.2 μCi/well) is then added to each well and the plate is incubated for a third 24 hr period at 37° C. in an atmosphere containing 5% CO2. […] The plate is sealed and the degree of methyl ^14C-thyrnidine incorporation is quantified on a Packard Top Count.

A375 = assay: Cell Proliferation Inhibition Assay (14C-thymidine incorporation), A375; type: cell-based; conditions: Homo sapiens, A-375
Excerpt: as §1, §2, §3, §4

SK-OV-3 = SK-OV-3 Cell Migration Inhibition; type: cell-based; conditions: several values in a cell are repeat determinations
HCT-116 = assay: Cell Proliferation Inhibition Assay (14C-thymidine incorporation), HCT-116; type: cell-based; conditions: Homo sapiens
Excerpt: as §1, §2, §3, §4

c-Src kinase = molecular target: T2, c-Src kinase (Homo sapiens, UniProt P12931); assay: c-Src Kinase Assay; type: biochemical; conditions: test concentration of 1 μM
T2 construct: purchased Upstate Biotechnology, Lake Placid, N.Y
T2 sequence (P12931 whole entry): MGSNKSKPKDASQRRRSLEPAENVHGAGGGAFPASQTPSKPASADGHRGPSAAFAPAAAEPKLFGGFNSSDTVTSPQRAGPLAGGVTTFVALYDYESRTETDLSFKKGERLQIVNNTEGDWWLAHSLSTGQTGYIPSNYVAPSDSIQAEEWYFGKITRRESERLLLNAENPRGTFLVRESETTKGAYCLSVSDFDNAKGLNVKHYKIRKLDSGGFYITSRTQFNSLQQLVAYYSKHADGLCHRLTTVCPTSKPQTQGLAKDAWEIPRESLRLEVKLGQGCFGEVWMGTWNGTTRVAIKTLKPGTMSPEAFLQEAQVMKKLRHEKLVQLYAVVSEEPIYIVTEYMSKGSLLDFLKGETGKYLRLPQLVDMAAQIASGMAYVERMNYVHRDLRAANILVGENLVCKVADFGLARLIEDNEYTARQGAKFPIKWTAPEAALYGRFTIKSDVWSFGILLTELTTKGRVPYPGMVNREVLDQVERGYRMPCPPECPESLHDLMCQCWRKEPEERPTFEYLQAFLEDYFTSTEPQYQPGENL
Experimental: A mixure of a 10× kinase buffer (80 mM MOPS at pH 7.0, 2 mM EDTA and 100 mM Magnesium Chloride), ATP (5 μM final from a 10 mM stock), a Cdc2 peptide […] (100 μM final from a 2.5 mM stock), γ-^33P ATP (10 μCi/μL stock) and water (20 μL/well) was added to each well of a Streptavidin Flashplate.
Test compound in 100% DMSO (0.5 μL) was added to the appropriate wells. Diluted c-Src kinase (human) (Upstate Biotechnology, Lake Placid, N.Y.) (diluted in a buffer consisting of 20 mM MOPS at pH 7.0, 1 mM EDTA, β-mercaptoethanol (0.1%), Brij-35 (0.01%), glycerol (5%), and 1 mg/mL bovine serum albumin) (2.5 μL) was added to the wells to initiate the reactions. The reaction plates were incubated at 30° C. for 40 min. The reaction was terminated by the addition of a 3% phosphoric acid solution (5 μL). The reaction product (10 μL) was spotted onto a P30 filtermat and washed for 5 minutes in phosphoric acid (75 mM). The wash sequence was repeated two more times, followed with one final wash in methanol. The plates were then dried, sealed and read on the TopCount scintillation counter after adding 30 μL scintillation fluid.
Percent inhibition was derived according to the procedure described in Example 5. The results for those compounds tested are shown in Table 2 at a test concentration of 1 μM.

Lyn kinase = molecular target: T3, Lyn kinase (Homo sapiens, UniProt P07948); assay: Lyn Kinase Assay; type: biochemical; conditions: test concentration of 1 μM
T3 construct: purchased Upstate biotechnology, Lake Placid, N.Y
T3 sequence (P07948 whole entry): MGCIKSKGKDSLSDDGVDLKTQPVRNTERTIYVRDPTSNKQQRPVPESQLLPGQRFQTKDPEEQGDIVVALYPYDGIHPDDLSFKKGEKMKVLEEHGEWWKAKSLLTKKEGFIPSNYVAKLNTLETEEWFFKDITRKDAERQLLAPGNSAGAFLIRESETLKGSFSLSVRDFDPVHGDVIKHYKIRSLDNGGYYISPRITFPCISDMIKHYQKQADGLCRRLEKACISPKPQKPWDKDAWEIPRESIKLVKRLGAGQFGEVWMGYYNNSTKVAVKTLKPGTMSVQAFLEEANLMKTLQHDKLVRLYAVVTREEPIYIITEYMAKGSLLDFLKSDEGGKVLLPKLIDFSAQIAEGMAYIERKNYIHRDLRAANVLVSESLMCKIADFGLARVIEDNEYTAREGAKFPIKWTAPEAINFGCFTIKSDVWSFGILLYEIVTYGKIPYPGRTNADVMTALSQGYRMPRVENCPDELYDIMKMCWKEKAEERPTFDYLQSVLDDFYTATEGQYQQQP
Experimental: A mixture of a 10× kinase buffer (500 mM MOPS at pH 7.5, 1 mM EGTA, 1 mM Sodium Vanadate, 1% β-mercaptoethanol and 100 mM Magnesium Acetate), ATP (5 μM final from a 10 mM stock), polyGluTyr (0.1 mg/mL final from a 1 mg/mL stock), γ-^33P ATP (10 μCi/μL stock) and water (20 μL/well) was added to each well of a Streptavidin Flashplate.
Test compound in 100% DMSO (0.5 μL) was added to the appropriate wells. Diluted Lyn kinase (human) (Upstate biotechnology, Lake Placid, N.Y) (diluted in a buffer consisting of 50 mM Tris at pH 7.5, 0.1 mM EGTA, Sodium Vanadate (0.1 mM), β-mercaptoethanol (0.1%) and 1 mg/mL bovine serum albumin) (2.5 μL) was added to the wells to initiate the reactions.
The reaction plates were incubated at 30° C. for 40 min. The reaction was terminated by the addition of a 3% phosphoric acid solution (5 μL). The reaction product (10 μL) was spotted onto a P30 filtermat and washed for 5 minutes in phosphoric acid (75 mM). The wash sequence was repeated two more times, followed with one final wash in methanol. The plates were then dried, sealed and read on the TopCount scintillation counter after adding 30 μL scintillation fluid.
Percent inhibition was derived according to the procedure described in Example 5. The results for those compounds tested are shown in Table 3 at a test concentration of 1 μM.

c-Abl kinase = molecular target: T4, c-Abl kinase (Homo sapiens, UniProt P00519); assay: c-Abl Kinase Assay; type: biochemical; conditions: test concentration of 1 μM; read-out: c-Abl percent inhibition
T4 construct: purchased Upstate Biotechnology, Lake Placid, N.Y
T4 sequence (P00519 whole entry): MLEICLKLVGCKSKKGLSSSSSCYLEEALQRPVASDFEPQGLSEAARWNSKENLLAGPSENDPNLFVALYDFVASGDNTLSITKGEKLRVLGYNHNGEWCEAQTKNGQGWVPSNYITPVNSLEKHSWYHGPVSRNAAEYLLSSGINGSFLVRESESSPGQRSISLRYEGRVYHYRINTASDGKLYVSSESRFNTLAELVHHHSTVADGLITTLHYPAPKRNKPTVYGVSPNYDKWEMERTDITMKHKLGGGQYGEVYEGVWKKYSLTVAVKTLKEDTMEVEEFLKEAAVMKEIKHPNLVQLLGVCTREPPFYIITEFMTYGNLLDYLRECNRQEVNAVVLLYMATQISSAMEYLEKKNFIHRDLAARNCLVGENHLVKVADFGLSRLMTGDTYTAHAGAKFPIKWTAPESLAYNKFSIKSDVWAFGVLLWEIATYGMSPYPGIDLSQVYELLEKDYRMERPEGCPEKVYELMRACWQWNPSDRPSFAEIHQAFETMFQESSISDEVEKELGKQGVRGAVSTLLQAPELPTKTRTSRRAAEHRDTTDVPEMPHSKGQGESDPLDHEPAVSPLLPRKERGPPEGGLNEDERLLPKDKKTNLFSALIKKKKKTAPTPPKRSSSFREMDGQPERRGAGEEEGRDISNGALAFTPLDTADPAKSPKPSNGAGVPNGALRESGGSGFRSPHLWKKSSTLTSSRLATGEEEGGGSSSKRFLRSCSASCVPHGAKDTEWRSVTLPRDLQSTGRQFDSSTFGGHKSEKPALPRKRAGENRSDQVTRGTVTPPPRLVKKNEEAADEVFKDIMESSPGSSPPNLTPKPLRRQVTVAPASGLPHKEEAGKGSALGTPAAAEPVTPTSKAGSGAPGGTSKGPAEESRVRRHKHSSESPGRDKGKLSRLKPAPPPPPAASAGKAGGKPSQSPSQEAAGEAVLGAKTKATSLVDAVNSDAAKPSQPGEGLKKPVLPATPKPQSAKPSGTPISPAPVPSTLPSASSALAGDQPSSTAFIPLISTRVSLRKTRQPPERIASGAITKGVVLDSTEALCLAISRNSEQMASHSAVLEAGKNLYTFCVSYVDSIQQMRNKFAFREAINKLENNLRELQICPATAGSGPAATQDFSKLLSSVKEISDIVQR
Experimental: A mixture of a 10× kinase buffer (80 mM MOPS at pH 7.0, 2 mM EDTA and 100 mM Magnesium Acetate), ATP (5 μM final from a 10 mM stock), a peptide […] (50 μM final from a 0.5 mM stock), γ-^33P ATP (10 μCi/μL stock) and water is added to each well (20 μl/well) of a Streptavidin Flashplate.
Test compound in 100% DMSO (0.5 μL) is added to the appropriate wells. Diluted c-Abl kinase (human) (Upstate Biotechnology, Lake Placid, N.Y.) (diluted in a buffer consisting of 20 mM MOPS at pH 7.0, 1 mM EDTA, β-mercaptoethanol (0.1%), Brij-35 (0.01%), glycerol (5%) and 1 mg/ml bovine serum albumin) (2.5 μL) is added to the wells to initiate the reactions.
The reaction plates are incubated at 30° C. for 40 min. The reaction is terminated by the addition of a 3% phosphoric acid solution (5 μL). The reaction product (10 μL) is spotted onto a P30 filtermat and is washed for 5 minutes in phosphoric acid (75 mM). The wash sequence is repeated two more times and is followed with one final wash in methanol. The plates are then dried, sealed and read on the TopCount scintillation counter after 30 μL scintillation fluid is added.
The 1% percent inhibition value for Compound 64 was derived according to the procedure described in Example 5 at a test concentration of 1 μM.

HER-2 = molecular target: T5, HER-2 (Homo sapiens, UniProt P04626); assay: HER-2 Kinase Assay; type: biochemical; conditions: GST-HER2, 1 μM ATP
T5 construct: the nucleotides encoding amino acids 679 to 1255 of HER-2; HIS6-Thrombin (His6 tag with thrombin site) (N); purchased Proqinase (Freiburg, Germany)
T5 sequence (P04626 679-1255): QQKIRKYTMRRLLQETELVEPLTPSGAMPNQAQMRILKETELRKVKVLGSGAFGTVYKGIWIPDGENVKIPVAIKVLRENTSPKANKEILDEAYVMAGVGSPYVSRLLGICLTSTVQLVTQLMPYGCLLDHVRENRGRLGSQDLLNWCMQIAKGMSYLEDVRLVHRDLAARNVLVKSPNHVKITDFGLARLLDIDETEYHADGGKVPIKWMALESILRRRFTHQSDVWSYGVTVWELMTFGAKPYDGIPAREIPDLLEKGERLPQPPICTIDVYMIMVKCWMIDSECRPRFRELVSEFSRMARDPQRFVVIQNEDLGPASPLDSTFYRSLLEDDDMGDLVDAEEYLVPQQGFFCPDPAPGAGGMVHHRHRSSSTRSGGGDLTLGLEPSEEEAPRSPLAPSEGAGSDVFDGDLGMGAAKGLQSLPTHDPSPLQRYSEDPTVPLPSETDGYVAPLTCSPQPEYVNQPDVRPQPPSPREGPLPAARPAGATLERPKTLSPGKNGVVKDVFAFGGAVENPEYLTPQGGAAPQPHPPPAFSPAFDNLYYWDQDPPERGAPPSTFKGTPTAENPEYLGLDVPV
Experimental: The HER-2 kinase used was purified at Proqinase (Freiburg, Germany) from a construct that consisted of a fusion of GST (Glutathione-S-Transferase), HIS6-Thrombin and the nucleotides encoding amino acids 679 to 1255 of HER-2.
A mixture of a 10× kinase reaction buffer (600 mM Hepes at pH 7.5, 30 mM Magnesium Chloride, 0.03 mM Sodium Vanadate and […] PEG 20,000), DTT (1.2 mM final from a 10 mM stock), ATP (1 μM from a 10 mM stock), biotinylated polyGluTyr (1.5 ng/μL final from stock of 1 μg/μL prepared by Upstate Biotechnologies, Lake Placid, N.Y.), Manganese Chloride (3 mM final from a 1 M stock), γ-^33P-ATP (10 μCi/μL stock) and water (70 μL/well) was added to each well of a Streptavidin Flashplate (Cat. # SMP103, NEN, Boston, Mass.).
Test compound stock (1 μL) was added to the appropriate wells. Diluted GSTHER2 kinase (6.7 ng/μL diluted into 50 mM Tris-HCl at pH 8.0 and 0.1% bovine serum albumin) (30 μL) was added (total volume of 200 ng/well) to initiate the reactions.
The reaction plates were incubated at 30° C. for 1 hr. The reaction was terminated by aspirating the reaction mixture from the plate wells and washing the wells three times with a 1×PBS stop buffer (300 μL) and 100 mM EDTA. After the final wash, the same stop buffer (200 μL) was again added to the wells. The plates were then sealed and read on the TopCount scintillation counter. […]

pIC50 (EGFR)	pIC50 (HeLa)	pIC50 (A375)	pIC50 (SK-OV-3; Homo sapiens, SK-OV-3, SK-OV-3 migration)	pIC50 (SK-OV-3; SK-OV-3 migration)	pIC50 (HCT-116)	inhibition at 1 µM (c-Src kinase)	inhibition at 1 µM (Lyn kinase)	inhibition at 1 µM (c-Abl kinase)	pIC50 (HER-2)	SMILES
7.81	< 4.00	< 4.00	6.73	6.81 and 6.85	< 4.00					Fc1ccc(Nc2ncnc3nc(Nc4ccc(CN5CCOCC5)cc4)sc23)cc1Cl [Cpd 18, N^7-(3-chloro-4-fluoro-phenyl)-N^2-(4-morpholin-4-ylmethyl-phenyl)-thiazolo[4,5-d]pyrimidine-2,7-diamine]
8.40						21%	17%	1%		C#Cc1cccc(Nc2ncnc3nc(Nc4ccc(CNC[C@H]5CCCO5)cc4)sc23)c1 [Cpd 64, N^7-(3-ethynyl-phenyl)-N^2-(4-{[(2R)-(tetrahydro-furan-2-ylmethyl)-amino]-methyl}-phenyl)-thiazolo[4,5-d]pyrimidine-2,7-diamine]
7.69	5.66	5.69			5.51				6.56	CN1CCN(Cc2ccc(Nc3nc4ncnc(Nc5ccc(OCc6cccc(F)c6)c(Cl)c5)c4s3)cc2)CC1 [Cpd 68, N^7-[3-chloro-4-(3-fluoro-benzyloxy)-phenyl]-N^2-[4-(4-methyl-piperazin-1-ylmethyl)-phenyl]-thiazolo[4,5-d]pyrimidine-2,7-diamine]
